In the NIST ThermoML archive (doi:10.1021/je2000205):
± gives the expanded uncertainty stated by the source.

Assay: mn = molality of the nth substance listed, in mol/kg
Conditions: 100 kPa, Liquid; for viscosity: Capillary tube (Ostwald / Ubbelohde) method; for speed of sound: Sing-around technique in a fixed-path interferometer; for mass density: Vibrating tube method

| Compound | viscosity (298.15 K, m1 = 1.13) [mPa·s] | speed of sound (298.15 K, m1 = 1.13) [m/s] | viscosity (303.15 K, m1 = 1.13) [mPa·s] | speed of sound (303.15 K, m1 = 1.13) [m/s] | viscosity (308.15 K, m1 = 1.13) [mPa·s] | speed of sound (308.15 K, m1 = 1.13) [m/s] | viscosity (313.15 K, m1 = 1.13) [mPa·s] | speed of sound (313.15 K, m1 = 1.13) [m/s] | viscosity (318.15 K, m1 = 1.13) [mPa·s] | speed of sound (318.15 K, m1 = 1.13) [m/s] | viscosity (323.15 K, m1 = 1.13) [mPa·s] | speed of sound (323.15 K, m1 = 1.13) [m/s] | also measured |
| --- | --- | --- | --- | --- | --- | --- | --- | --- | --- | --- | --- | --- | --- |
| O=C[C@H](O)[C@@H](O)[C@H](O)[C@H](O)CO [D-glucose] + O | 1.489 ± 0.15 | 1564.8 ± 1.4 | 1.278 ± 0.13 | 1574.3 ± 1.3 | 1.147 ± 0.12 | 1582.4 ± 1.3 | 0.9944 ± 0.1 | 1589.1 ± 1.3 | 0.9095 ± 0.091 | 1594.4 ± 1.3 | 0.8291 ± 0.083 | 1598.5 ± 1.4 | mass density (298.15 K, m1 = 1.13): 1065.07 ± 0.12 kg/m3; mass density (303.15 K, m1 = 1.13): 1063.3 ± 0.11 kg/m3; mass density (308.15 K, m1 = 1.13): 1061.36 ± 0.1 kg/m3; mass density (313.15 K, m1 = 1.13): 1059.24 ± 0.1 kg/m3; mass density (318.15 K, m1 = 1.13): 1056.98 ± 0.1 kg/m3; mass density (323.15 K, m1 = 1.13): 1054.25 ± 0.12 kg/m3 |
| OC[C@H]1O[C@@](CO)(O[C@H]2O[C@H](CO)[C@@H](O)[C@H](O)[C@H]2O)[C@@H](O)[C@@H]1O [D-sucrose] + O | 2.716 ± 0.27 | 1607.9 ± 1.4 | 2.376 ± 0.24 | 1615.6 ± 1.3 | 2.075 ± 0.21 | 1621.9 ± 1.3 | 1.795 ± 0.18 | 1627 ± 1.3 | 1.587 ± 0.16 | 1630.8 ± 1.3 | 1.394 ± 0.14 | 1633.3 ± 1.4 | mass density (298.15 K, m1 = 1.27): 1127.37 ± 0.18 kg/m3; mass density (303.15 K, m1 = 1.27): 1125.37 ± 0.17 kg/m3; mass density (308.15 K, m1 = 1.27): 1123.2 ± 0.17 kg/m3; mass density (313.15 K, m1 = 1.27): 1120.73 ± 0.17 kg/m3; mass density (318.15 K, m1 = 1.27): 1118.18 ± 0.16 kg/m3; mass density (323.15 K, m1 = 1.27): 1115.44 ± 0.17 kg/m3 |
